Measured values: patent US20250367321A1, “COMPOSITIONS AND METHODS INVOLVING ADGRG6” (The Regents of the University of California, priority 2022, published 2025)

Key:
adenyl cyclase (AC) = test: cAMP levels after treatment with the AC inhibitor; type: cell-based, human; details: for cAMP levels upon aAdo treatment: basal condition
Text: (§1) CAMP is a well-known signaling molecule that initiates adipogenesis by increasing protein kinase A (pKA), which then phosphorylates early transcription factors, including C/EBPb. To test whether ADGRG6 might increase cAMP levels in preadipocytes, we measured CAMP levels in WT and ADGRG6 KO human preadipocytes in both basal condition and forskolin which is […], using ELISA. […] We also measured cAMP levels in human preadipocytes that overexpress ADGRG6. […] In order to test whether ADGRG6 can directly affect cAMP levels via adenyl cyclase (AC), that converts ATP to CAMP, we treated ADGRG6 overexpressing preadipocytes with 2′,5′-Dideoxyadenosine (aAdo), an inhibitor of AC. In the basal condition, cAMP levels were reduced in both WT and ADGRG6 overexpressing cells upon aAdo treatment (FIG. 4A). […] Furthermore, we also examined the downstream target of CAMP-PKA, CREB phosphorylation. […] In the stimulated condition, p-CREB increased in WT cells but not in ADGRG6 KO cells (FIG. 4B).

human preadipocytes = test: cAMP levels by ELISA, basal or forskolin-stimulated; type: cell-based; details: WT human preadipocytes, forskolin treatment
Text: as §1

SMILES: C[C@H]1O[C@@H](n2cnc3c(N)ncnc32)C[C@@H]1O [aAdo, 2′,5′-Dideoxyadenosine]
- cAMP levels upon aAdo treatment (adenyl cyclase (AC); ADGRG6 overexpressing preadipocytes): reduced
- increase of cAMP levels in ADGRG6 overexpressing preadipocytes compared to WT (adenyl cyclase (AC); Ado stimulated condition): 25%
- cAMP levels upon aAdo treatment (adenyl cyclase (AC); WT preadipocytes): reduced

SMILES: C=C[C@@]1(C)CC(=O)[C@]2(O)[C@@]3(C)[C@@H](O)CCC(C)(C)[C@@H]3[C@H](O)[C@H](OC(C)=O)[C@@]2(C)O1 [forskolin]
- increase in cAMP levels compared to the basal condition (human preadipocytes): 2 fold
